Counter-ions that a name gives are not always drawn. Like-named read-outs stand apart in the source and are kept apart here.
How the values were obtained:
[1] = test system: Ba/F3-FGFR3-transfected cells; test: Ba/F3-FGFR3 (plus IL3) cellular proliferation assay, counterscreen with 10 ng/ml murine IL3; assay type: cell-based; settings: for BAF3-FGFR3 (PLUS IL3) pIC50: plus IL3 (10 ng/ml murine IL3, counterscreen); for IC50: read-out: BAF3-FGFR3 (PLUS IL3) pIC50 (converted)
How it was run: (§1)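 Compound dilutions were dispensed first, then 20000 FGFR3-transfected Ba/F3 cells per well in serum-containing RPMI-1640 were added. After 24 h incubation at 37° C, Alamar Blue was applied for 4 h before relative fluorescence units were recorded. In the minus-IL3 format cells grow without cytokine; the other format contains 10 ng/ml murine IL3.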

FGFR3 (h) = FGFR3 (h) (Homo sapiens, UniProt P22607); test: FGFR3 (enzymatic assay), TR-FRET; assay type: biochemical; settings: read-out: FGFR 3 pIC50 (converted)
Source text: Time-Resolved Fluorescence Resonance Energy Transfer (TR-FRET) signal (ex340 nm.

[2] = test system: Ba/F3-KDR-transfected cells; test: Ba/F3-KDR (plus IL3) cellular proliferation assay, counterscreen with 10 ng/ml murine IL3; assay type: cell-based; settings: for BAF3-KDR (PLUS IL3) pIC50: plus IL3 (10 ng/ml murine IL3, counterscreen); for IC50: read-out: BAF3-KDR (PLUS IL3) pIC50 (converted)
How it was run: (§2)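 Compound in DMSO was dispensed first, then transfected cells in serum-containing RPMI-1640 were added. After a 24 h incubation, viability was gauged by resazurin reduction over 4 h, measured as fluorescence.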

[3] = target: T1, Ba/F3-FGFR1-transfected cells (Homo sapiens, UniProt P11362); test: Ba/F3-FGFR1 (minus IL3) cellular proliferation assay, Alamar Blue; assay type: cell-based
T1 construct: BAF3-FGFR1 (MIN IL3) pIC50; other: minus IL3
How it was run: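 Compound is dispensed first, then FGFR1-transfected Ba/F3 cells are added at 20000 per well in phenol red-free RPMI-1640 containing 10% FBS. After 24 h at 37 °C, Alamar Blue is added for 4 h and fluorescence is measured at 540/590 nm.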

[4] = target: Ba/F3-FGFR4-transfected cells (Homo sapiens, UniProt P22455); test: Ba/F3-FGFR4 cellular proliferation assay, Alamar Blue; assay type: cell-based
How it was run: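 Step one: compound dilutions in DMSO are sprayed into wells. Step two: transfected Ba/F3-FGFR4 cells are added at 20000 per well and incubated 24 hours at 37° C. Step three: Alamar Blue is added for 4 hours and relative fluorescence is measured.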

[5] = target: T2, Ba/F3-FGFR3-transfected cells (Homo sapiens, UniProt P22607); test: Ba/F3-FGFR3 (minus IL3) cellular proliferation assay, Alamar Blue; assay type: cell-based
T2 construct: BAF3-FGFR3 (MIN IL3) pIC50; other: minus IL3
How it was run: as §1

[6] = target: T3, Ba/F3-KDR-transfected cells (Homo sapiens, UniProt P35968); test: Ba/F3-KDR (minus IL3) cellular proliferation assay, Alamar Blue; assay type: cell-based
T3 construct: BAF3-KDR (MIN IL3) pIC50; other: minus IL3
How it was run: as §2

KDR (h) = KDR (h) (Homo sapiens, UniProt P35968); test: KDR (VEGFR2) (enzymatic assay), TR-FRET; assay type: biochemical; settings: for IC50: read-out: VEGFR 2 (KDR) pIC50 (converted)
How it was run: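 Phosphorylation of biotinylated Flt3 peptide (500 nM) by 150 ng/ml enzyme was measured at 3 μM ATP in Mn2+-containing HEPES buffer, pH 7.5, over 120 min at room temperature. Detection used Eu-anti-P-Tyr and SA-XL-665 TR-FRET.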

FGFR4 (h) = FGFR4 (h) (Homo sapiens, UniProt P22455); test: FGFR4 (enzymatic assay), TR-FRET; assay type: biochemical; settings: FGFR 4 pIC50, enzymatic assay
FGFR2 (h) = FGFR2 (h) (Homo sapiens, UniProt P21802); test: FGFR2 (enzymatic assay), TR-FRET; assay type: biochemical; settings: enzymatic assay, read-out: FGFR 2 pIC50 (converted)
How it was run: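 hFGFR2 150 ng/ml; Btn-Flt3 500 nM; ATP 0.4 μM; 50 mM HEPES pH 7.5, 6 mM MnCl2, 1 mM DTT, 0.1 mM Na3VO4, 0.01% Triton-X-100; 1% DMSO final.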

FGFR1 (h) = FGFR1 (h) (Homo sapiens, UniProt P11362); test: FGFR1 (enzymatic assay), TR-FRET; assay type: biochemical; settings: read-out: FGFR 1 pIC50 (converted)
[7] = test system: Ba/F3-FGFR1-transfected cells; test: Ba/F3-FGFR1 (plus IL3) cellular proliferation assay, counterscreen with 10 ng/ml murine IL3; assay type: cell-based; settings: for BAF3-FGFR1 (PLUS IL3) pIC50: plus IL3 (10 ng/ml murine IL3, counterscreen); for IC50: read-out: BAF3-FGFR1 (PLUS IL3) pIC50 (converted)
How it was run: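 Proliferation read-out: resazurin-based Alamar Blue fluorescence (540/590 nm) after 4 h, following 24 h compound treatment of 20000 Ba/F3-FGFR1 cells per well in 10% FBS RPMI at 37° C. IL3 counterscreen used the same protocol plus 10 ng/ml murine IL3.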

[8] = average values if tested multiple times

Chain of KDR (h) (P35968 20-1356): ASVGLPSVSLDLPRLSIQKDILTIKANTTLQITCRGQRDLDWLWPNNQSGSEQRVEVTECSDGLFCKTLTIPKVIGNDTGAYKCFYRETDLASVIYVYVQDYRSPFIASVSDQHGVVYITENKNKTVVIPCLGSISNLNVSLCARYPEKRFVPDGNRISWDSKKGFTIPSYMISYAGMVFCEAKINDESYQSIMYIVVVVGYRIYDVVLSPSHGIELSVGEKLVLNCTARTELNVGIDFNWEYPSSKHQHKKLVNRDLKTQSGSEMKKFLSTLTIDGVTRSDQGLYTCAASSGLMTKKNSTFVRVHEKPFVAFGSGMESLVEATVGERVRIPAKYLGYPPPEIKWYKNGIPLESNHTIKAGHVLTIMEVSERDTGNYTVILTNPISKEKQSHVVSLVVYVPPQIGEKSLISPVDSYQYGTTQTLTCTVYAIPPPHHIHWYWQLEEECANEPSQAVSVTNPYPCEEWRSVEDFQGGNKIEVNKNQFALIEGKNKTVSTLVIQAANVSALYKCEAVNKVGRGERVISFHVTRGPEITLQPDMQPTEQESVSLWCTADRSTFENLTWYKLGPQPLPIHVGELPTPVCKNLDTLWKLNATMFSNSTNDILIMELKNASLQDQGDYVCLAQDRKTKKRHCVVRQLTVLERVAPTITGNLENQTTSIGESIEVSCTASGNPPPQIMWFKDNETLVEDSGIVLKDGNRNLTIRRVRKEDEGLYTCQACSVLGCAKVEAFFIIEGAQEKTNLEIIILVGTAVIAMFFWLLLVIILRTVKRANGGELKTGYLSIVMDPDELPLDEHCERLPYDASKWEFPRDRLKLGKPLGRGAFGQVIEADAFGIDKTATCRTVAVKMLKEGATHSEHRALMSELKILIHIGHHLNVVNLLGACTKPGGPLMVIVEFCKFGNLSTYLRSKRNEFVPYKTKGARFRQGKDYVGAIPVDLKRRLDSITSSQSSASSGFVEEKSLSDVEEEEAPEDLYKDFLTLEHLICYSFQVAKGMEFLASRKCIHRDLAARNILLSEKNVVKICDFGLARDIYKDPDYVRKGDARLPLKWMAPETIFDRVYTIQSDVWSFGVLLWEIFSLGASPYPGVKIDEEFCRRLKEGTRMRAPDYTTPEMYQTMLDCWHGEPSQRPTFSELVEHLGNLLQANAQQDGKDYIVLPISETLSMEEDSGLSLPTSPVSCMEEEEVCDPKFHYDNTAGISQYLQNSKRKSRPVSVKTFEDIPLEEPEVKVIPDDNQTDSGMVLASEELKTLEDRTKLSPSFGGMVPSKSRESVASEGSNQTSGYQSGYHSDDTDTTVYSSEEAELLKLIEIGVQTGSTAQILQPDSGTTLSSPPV
T2 sequence (P22607 whole entry, change not shown): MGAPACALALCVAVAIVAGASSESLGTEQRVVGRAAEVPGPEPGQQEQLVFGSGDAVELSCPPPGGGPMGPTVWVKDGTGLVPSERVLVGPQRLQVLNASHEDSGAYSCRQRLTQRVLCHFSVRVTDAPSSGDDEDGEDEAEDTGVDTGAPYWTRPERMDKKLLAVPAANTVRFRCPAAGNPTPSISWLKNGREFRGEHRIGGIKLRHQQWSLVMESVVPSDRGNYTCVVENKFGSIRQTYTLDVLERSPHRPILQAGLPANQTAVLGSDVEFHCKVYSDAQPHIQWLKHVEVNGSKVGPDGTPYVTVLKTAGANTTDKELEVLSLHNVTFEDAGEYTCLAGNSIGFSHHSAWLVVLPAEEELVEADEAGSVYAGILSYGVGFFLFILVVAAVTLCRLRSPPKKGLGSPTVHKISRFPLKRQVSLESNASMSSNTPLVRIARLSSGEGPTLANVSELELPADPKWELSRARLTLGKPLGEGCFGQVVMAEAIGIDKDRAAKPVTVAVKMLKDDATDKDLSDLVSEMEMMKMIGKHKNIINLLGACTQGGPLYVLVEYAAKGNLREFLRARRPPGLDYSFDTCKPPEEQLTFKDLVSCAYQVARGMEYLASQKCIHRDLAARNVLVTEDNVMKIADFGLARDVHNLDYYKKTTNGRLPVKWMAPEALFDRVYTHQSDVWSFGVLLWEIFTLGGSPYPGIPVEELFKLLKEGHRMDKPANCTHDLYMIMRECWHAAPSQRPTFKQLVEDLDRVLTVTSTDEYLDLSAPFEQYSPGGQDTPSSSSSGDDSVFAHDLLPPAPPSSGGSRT
T1 sequence (P11362 whole entry, change not shown): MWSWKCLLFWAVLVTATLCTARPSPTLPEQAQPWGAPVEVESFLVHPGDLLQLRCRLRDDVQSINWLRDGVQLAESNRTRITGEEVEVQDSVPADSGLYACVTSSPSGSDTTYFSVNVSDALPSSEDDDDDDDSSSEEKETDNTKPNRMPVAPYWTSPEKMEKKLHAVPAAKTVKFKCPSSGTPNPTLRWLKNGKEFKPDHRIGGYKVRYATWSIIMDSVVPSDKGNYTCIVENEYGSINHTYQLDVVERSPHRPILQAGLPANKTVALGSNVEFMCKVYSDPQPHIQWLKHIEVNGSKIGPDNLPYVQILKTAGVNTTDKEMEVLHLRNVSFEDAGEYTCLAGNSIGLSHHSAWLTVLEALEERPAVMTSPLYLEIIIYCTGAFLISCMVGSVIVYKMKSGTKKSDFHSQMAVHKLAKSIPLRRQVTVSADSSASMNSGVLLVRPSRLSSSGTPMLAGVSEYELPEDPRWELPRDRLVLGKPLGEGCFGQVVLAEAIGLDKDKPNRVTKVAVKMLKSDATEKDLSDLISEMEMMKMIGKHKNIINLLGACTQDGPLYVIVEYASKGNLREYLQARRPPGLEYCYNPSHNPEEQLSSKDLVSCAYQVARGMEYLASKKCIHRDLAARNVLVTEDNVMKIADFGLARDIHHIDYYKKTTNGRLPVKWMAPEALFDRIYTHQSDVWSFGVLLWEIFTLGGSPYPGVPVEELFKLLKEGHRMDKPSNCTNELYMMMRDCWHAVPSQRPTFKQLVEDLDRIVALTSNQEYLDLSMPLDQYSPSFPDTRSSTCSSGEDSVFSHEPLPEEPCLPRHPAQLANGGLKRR
T3 sequence (P35968 whole entry, change not shown): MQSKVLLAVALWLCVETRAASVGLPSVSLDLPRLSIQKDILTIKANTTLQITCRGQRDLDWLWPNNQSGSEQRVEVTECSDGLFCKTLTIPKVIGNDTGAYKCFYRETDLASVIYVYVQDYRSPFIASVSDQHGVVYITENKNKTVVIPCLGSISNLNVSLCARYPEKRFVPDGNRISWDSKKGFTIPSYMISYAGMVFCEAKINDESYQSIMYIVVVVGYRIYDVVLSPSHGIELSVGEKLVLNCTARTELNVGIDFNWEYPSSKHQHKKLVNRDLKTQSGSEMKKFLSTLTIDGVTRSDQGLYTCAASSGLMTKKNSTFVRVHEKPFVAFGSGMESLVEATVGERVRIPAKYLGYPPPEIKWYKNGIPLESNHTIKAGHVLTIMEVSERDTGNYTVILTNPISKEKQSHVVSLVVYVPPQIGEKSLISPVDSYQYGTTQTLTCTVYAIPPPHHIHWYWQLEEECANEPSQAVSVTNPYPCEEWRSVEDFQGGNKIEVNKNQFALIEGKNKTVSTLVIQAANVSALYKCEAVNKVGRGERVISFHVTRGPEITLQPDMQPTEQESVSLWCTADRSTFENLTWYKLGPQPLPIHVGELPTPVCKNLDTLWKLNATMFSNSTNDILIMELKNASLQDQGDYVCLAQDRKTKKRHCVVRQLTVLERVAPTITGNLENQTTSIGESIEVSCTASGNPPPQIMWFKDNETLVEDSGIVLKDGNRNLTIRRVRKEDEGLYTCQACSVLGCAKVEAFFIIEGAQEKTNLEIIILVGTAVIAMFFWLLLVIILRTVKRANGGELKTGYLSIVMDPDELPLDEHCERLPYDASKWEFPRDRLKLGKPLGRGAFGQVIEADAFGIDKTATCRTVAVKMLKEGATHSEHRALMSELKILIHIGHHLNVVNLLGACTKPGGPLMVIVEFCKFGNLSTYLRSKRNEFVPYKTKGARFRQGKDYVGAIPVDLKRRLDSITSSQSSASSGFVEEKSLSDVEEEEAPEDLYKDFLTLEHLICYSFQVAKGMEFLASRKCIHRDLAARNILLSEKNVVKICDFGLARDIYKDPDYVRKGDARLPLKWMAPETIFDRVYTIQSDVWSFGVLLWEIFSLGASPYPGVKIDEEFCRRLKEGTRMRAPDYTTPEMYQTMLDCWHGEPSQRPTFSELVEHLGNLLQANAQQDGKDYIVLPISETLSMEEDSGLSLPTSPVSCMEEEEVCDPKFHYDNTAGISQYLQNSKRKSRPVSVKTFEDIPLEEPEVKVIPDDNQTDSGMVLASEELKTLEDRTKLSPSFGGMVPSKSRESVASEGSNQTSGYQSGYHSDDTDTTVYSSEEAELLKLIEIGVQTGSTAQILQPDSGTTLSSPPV
Chain of FGFR2 (h) (P21802 22-821): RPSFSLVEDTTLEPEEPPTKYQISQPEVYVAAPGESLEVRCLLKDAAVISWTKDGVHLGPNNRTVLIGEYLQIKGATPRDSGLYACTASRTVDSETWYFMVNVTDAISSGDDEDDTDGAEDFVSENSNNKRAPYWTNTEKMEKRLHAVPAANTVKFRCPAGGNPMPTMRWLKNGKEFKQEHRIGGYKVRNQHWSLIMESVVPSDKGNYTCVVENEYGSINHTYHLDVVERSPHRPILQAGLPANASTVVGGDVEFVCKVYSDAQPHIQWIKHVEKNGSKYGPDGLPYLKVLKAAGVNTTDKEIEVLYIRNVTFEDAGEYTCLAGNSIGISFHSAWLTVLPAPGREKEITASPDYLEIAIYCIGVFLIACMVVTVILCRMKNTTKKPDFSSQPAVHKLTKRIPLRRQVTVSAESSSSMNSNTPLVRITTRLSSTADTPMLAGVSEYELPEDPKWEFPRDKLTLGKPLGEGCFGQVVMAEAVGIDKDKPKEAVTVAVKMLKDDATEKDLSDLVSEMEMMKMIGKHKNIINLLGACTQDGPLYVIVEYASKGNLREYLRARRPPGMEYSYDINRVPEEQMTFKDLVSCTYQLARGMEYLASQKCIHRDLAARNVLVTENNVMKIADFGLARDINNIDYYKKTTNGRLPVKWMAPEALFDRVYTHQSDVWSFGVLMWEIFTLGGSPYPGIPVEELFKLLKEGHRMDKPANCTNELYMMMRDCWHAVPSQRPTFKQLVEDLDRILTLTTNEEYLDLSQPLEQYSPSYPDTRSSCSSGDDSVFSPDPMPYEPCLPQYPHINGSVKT

| SMILES | BAF3-FGFR3 (PLUS IL3) pIC50 [1] | IC50 (FGFR3 (h); [8]) [nM] | BAF3-KDR (PLUS IL3) pIC50 [2] | BAF3-FGFR1 (MIN IL3) pIC50 [3] | BAF3-FGFR4 pIC50 [4] | BAF3-FGFR3 (MIN IL3) pIC50 [5] | BAF3-KDR (MIN IL3) pIC50 [6] | IC50 (KDR (h); [8]) [nM] | IC50 (FGFR4 (h); [8]) [nM] | IC50 (FGFR2 (h); [8]) [nM] | IC50 (FGFR1 (h); [8]) [nM] | BAF3-FGFR1 (PLUS IL3) pIC50 [7] | IC50 [1] [nM] | IC50 [2] [nM] | IC50 [7] [nM] | IC50 (FGFR3 (h)) [nM] | IC50 (FGFR4 (h)) [nM] | IC50 (FGFR2 (h)) [nM] | IC50 (FGFR1 (h)) [nM] | IC50 (KDR (h)) [nM] | further results |
| --- | --- | --- | --- | --- | --- | --- | --- | --- | --- | --- | --- | --- | --- | --- | --- | --- | --- | --- | --- | --- | --- |
| COc1cc(OC)cc(N(Cc2ncc[nH]2)c2ccc3ncc(-c4cnn(C)c4)nc3n2)c1 [24-fumarate salt] | <5 | 0.851 | <5 | 8.46 | 7.85 | ~8.61 | 6.38 | 11.7 | 1.2 | 1.26 | 0.631 | <5 |  |  |  |  |  |  |  |  |  |
| COc1cc(OC)c(F)c(N(CC(O)COC(C)C)c2ccc3ncc(-c4cnn(C)c4)nc3n2)c1 (single isomer, unassigned) [Compound 79] | <5 | 1.66 | <5 | 7.58 | 7.28 | 7.63 | 5.73 | 25.7 | 2 | 2.95 | 2.34 | <5 |  |  |  |  |  |  |  |  |  |
| CNCCn1/c(=N/c2c(F)ccc(OC)c2Cl)ccc2ncc(-c3cnn(C)c3)nc21 [Compound 70] |  | 38.9 |  | 5.75 | 5.69 | 6.31 | <5 | 537 | 93.3 | 23.4 | 39.8 |  | > 10000 | > 10000 | > 10000 |  |  |  |  |  |  |
| COc1cc(OC)c(F)c(N(CC2CCC(=O)N2)c2ccc3ncc(-c4cnn(C)c4)nc3n2)c1 (stereo not drawn) [Compound 52] | <5 | 1.95 | <5 | 7.10 | 6.55 | 7.10 | 5.56 | 25.1 | 4.79 | 2.69 | 2.57 | <5 |  |  |  |  |  |  |  |  |  |
| COc1ccc(Cl)c(N(CC2CCC(=O)N2)c2ccc3ncc(-c4cnn(C)c4)nc3n2)c1Cl (stereo not drawn) [Compound 94] | <5 |  | <5 | 5.52 | <5 | ~5.56 | <5 |  |  |  |  | <5 |  |  |  | 81.3 | 676 | 49 | 97.7 |  | VEGFR 2 (KDR) pIC50 (KDR (h)): <6 |
| CNCCn1/c(=N/c2c(Cl)c(OC)cc(OC)c2Cl)ccc2ncc(-c3cnn(C)c3)nc21 [Compound 82] |  | 14.1 |  | 6.67 | 5.43 | ~6.61 | <5 | 490 | 182 | 10.7 | 11.7 |  | > 10000 | > 10000 | > 10000 |  |  |  |  |  |  |
| CNCCn1/c(=N/c2c(F)c(OC)cc(OC)c2F)ccc2ncc(-c3cn[nH]c3)nc21 [Compound 121] |  |  |  | 7.38 | 6.08 | 6.88 | 5.25 |  |  |  |  |  | > 10000 | > 10000 | > 10000 | 1 | 2.95 | 2.57 | 1.62 | 26.9 |  |
| COc1cc(OC)c(F)c(N(CC2CCOC2)c2ccc3ncc(-c4cnn(C)c4)nc3n2)c1 (single isomer, unassigned) [Compound 172] | <5 |  | <5 | 6.54 | 6.33 | ~7.06 | 5.35 |  |  |  |  | <5 |  |  |  | 3.02 | ~15.8 | 4.47 | 3.72 | 45.7 |  |
| COc1cc(/N=c2\ccc3ncc(-c4cnn(C)c4)nc3n2CCNC(C)=O)c(F)c(OC)c1 [Compound 243] |  |  |  | 7.85 | 7.14 | ~8.13 | 6.00 |  |  |  |  |  | > 10000 | > 10000 | > 10000 | 1.32 | 1.95 | 1.62 | 0.977 | 15.1 |  |
| COc1cc(OC)c(F)c(N(Cc2ncc[nH]2)c2ccc3ncc(-c4cnn(C)c4)nc3n2)c1 [23-Sulfate salt] | <5 | 1.12 | <5 | 8.94 | 7.88 | ~8.64 | 6.51 | 7.94 | 1.26 | 2.09 | 0.589 | <5 |  |  |  |  |  |  |  |  |  |
